In data set [1] the test system is herpes simplex virus (HSV). The experiment in a line: Plaque titration: reduction of plaque size and plaque number of herpes simplex virus in human fetal fibroblasts. The format is cell-based. As to conditions: for IC25 / IC50 / IC75: Fibroblast, human fetal fibroblasts, 48 h. As for the experimental part: Herpes simplex virus (HSV) strains were grown and titrated at 36° C. in human fetal fibroblasts derived from fetal tissues, and used for virus work before the tenth passage. Cells were grown and maintained in basal medium Eagle (BME; Auto-Pow, Flow Laboratories) supplemented with 0.112% sodium bicarbonate, 2 mM 1-glutanine, 2 mg neomycin per 100 ml and 5-20% calf serum. 5% BME, as described hereafter, indicates medium containing 5 ml of calf serum in a total volume of 100 ml.
The titer of the HSV strains is determined by a plaque titration method (Roizman & Roane, "Virology", 15, 75-79, 1961). Tissue culture dishes are seeded with cells and used for assays when approximately 75% monolayer. Volumes (0.2 ml) of logarithmic dilutions of the strain are inoculated onto each of two tissue culture dishes, and adsorbed for 1 hr. with intermittent shaking, the inoculum removed, and 2 ml of 5% BME containing 0.5% human immune serum globulin added. After a 48 hour incubation period at 36° C. in a 5% CO2 atmosphere, the overlay medium is removed and the cell sheets stained with a 0.05% aqueous crystal violet solution. The number of plaques is counted, the duplicates averaged, and the number of plaque-forming units calculated.
The compounds are tested for activity against the herpes simplex strains using a stock solution of each compound freshly prepared by dissolving 1.2 mg in BME. Appropriate dilution of each compound are made in 5% BME containing 0.5% human immune serum globulin just before usage.
Tissue culture dishes (35 by 10 mm) with approximately 75% cell monolayer are inoculated with approximately 50 plaque-forming units of HSV per 0.2 ml, and the virus adsorbed for 1 hour, with intermittent shaking. After removal of the inoculum, 2 ml of 5% BME with 0.5% immune globulin and three-fold dilutions of the appropriate drug are added. One set of dishes receives no drug and is used as a control. After a 48-hour incubation period, at 36° C. in a 5% CO2 atmosphere, the overlay medium is removed, the cells stained as described above, and plaques counted. The counts of replicate plates are averaged, and the number of plaques emerging in the presence of each drug dilution is calculated. The reduction in plaque size caused by the concentration of the drug, as compared with the relevant control, is also measured, visually. […] A reduction in the area of the growing plaque indicates inhibition of plaque growth, i.e. inhibition of viral reproduction, caused by the drug.

Data set [2] concerns cytomegalovirus (CMV). Nature of the data set: CMV plaque (microplaque/ELISA) assay in human fetal fibroblast (lung) HFF cells. Type of data set: cell-based. Particulars: at a dosage level non-toxic to mammalian cells. As to the method:
The compounds of example 3, (5-aza-C*) was tested in vitro for activity against cytomegalovirus, CMV, in mammalian cells. Human fetal fibroblast (lung) HFF cells were used, in generally standard viral plaque titration methods.
Human fetal fibroblast (lung) HFF cells were used, in generally standard viral plaque titration methods. The cells were grown and maintained in Basal Medium Eagle (BME) supplemented with 0.112% sodium bicarbonate, 2 mM L-glutamine, 2 mg % neomycin and 20% (vol/vol) calf serum.
A viral plaque titration method (Roizman & Roane, 1961) was used to determine the virus titre of the CMV. 35 mm tissue culture plates were seeded with HFF 36 P5 and grown to 50-70% monolayer. […]
The cells were incubated for 72 hours at 37° C. in 5% carbon dioxide atmosphere. At 75 hours, the number of CMV infected foci (microplaques) was quantitated using enzyme linked immunosorbent assay (ELISA) using as an enzyme tag horseradish peroxidase and DAB substrate so as to stain the infected foci with a brown precipitate. […]
CMV-positive human serum was diluted 1:10 with PBS, and 0.2 ml of the diluted serum was put in each plate and the plate shaken for 30 minutes. […] Plaques were counted, and numbers of plaques per microscopic field determined.
The reading of the CMV assay was done by comparing no-drug controls to the drug treated plates. […]
(An ELISA detects its analyte on a solid surface through an enzyme-linked reagent.)

Data set [3] can be described thus: Toxicity to host cells. Type of data set: cell-based, human. Particulars: in the HSV test; human fetal fibroblasts; read-out: concentration up to which no evidence of toxicity was shown.
Data set [4] relates to human fetal fibroblasts / mammalian cells. Nature of the data set: Toxicity to host cells. As to conditions: at the dosage level active against HSV and CMV. Type of data set: cell-based.
Data set [5] concerns herpes simplex virus (HSV). As to conditions: disclosed in U.S. Pat. No. 4,347,360; cited from earlier work.
[6] abbreviates: read-out: concentration reducing plaque numbers by 25%.
Setting [7] is: read-out: concentration reducing plaque numbers by 50%.
Where [8] appears, read: read-out: concentration reducing plaque size by 25%.
The mark [9] stands for this setting: read-out: concentration reducing plaque size by 50%.

The structures appear in SMILES notation. In brackets after ≈: the same amount, converted by molar mass. Where two headings read alike, the source gives them in different places.

On to `Nc1ncn(COC(CO)CO)c(=O)n1` [5-aza-C*, 5-aza-1-[[1-hydroxymethyl-[2-hydroxy]-ethoxy]methyl]cytosine], for which the “activity against HSV (in words)” value in data set [1] is on record as “high activity against the HSV”; in data set [1] (listed as 5-aza-1-[[1-hydroxymethyl(2-hydroxy)ethoxy]methyl]cytosine), “active against herpes simplex virus HSV”. Moreover, the IC25 in data set [1] (setting [6]) was 8 µg/mL (≈ 37 µM); in data set [1] (setting [8]), 5 µg/mL (≈ 23.1 µM). The IC50 in data set [1] (setting [7]) and in data set [1] (setting [9]) was 30 µg/mL (≈ 139 µM) in each case. Moreover, the IC75 in data set [1] (read-out: concentration reducing plaque numbers by 75%) was 140 µg/mL (≈ 648 µM); in data set [1] (read-out: concentration reducing plaque size by 75%), 110 µg/mL (≈ 509 µM). For the same compound, the “activity against CMV (in words)” value in data set [2] is “active”. Moreover, the MNTC at 48 h in data set [3] is > 304 µg/mL. Further, the “toxicity to mammalian cells (in words)” value in data set [4] was “non-toxic to mammalian cells”.
`O=c1[nH]c(=O)n(COC(COCc2ccccc2)COCc2ccccc2)cc1F` [5F-benzyl-U*, 1-[[2-benzyloxy-1-(benzyloxymethyl)ethoxy]methyl]-5-fluorouracil]: in data set [1], the “activity against HSV (in words)” value was “showed activity against HSV”. The IC25 in data set [1] (setting [6]) came to 70 µg/mL (≈ 169 µM); in data set [1] (setting [8]), 10 µg/mL (≈ 24.1 µM). For the same compound, the IC50 in data set [1] (setting [7]) turned out to be 110 µg/mL (≈ 265 µM); in data set [1] (setting [9]) it was 50 µg/mL (≈ 121 µM). Also, in data set [3], the MNTC at 48 h was > 110 µg/mL.
As to `Nc1ncnc2c1ncn2COC(CO)CO` [9-[[2-hydroxy-1-(hydroxymethyl)ethoxy]-methyl]adenine], the “activity against herpes simplex virus (in words)” value in data set [5] is on record as “active against herpes simplex virus”.
As for `Nc1ccn(COC(COCc2ccccc2)COCc2ccccc2)c(=O)n1` [dibenzyl-C*, 1-[[2-benzyloxy-1-(benzyloxymethyl)]ethoxymethyl]cytosine], in data set [1], the “activity against HSV (in words)” value was “exhibited activity against HSV, but to a lesser extent”.
